Measurements: patent US20100172988A1, “SUSTAINED RELEASE PREPARATION AND METHOD FOR PRODUCTION THEREOF” (KISSEI PHARMACEUTICAL CO., LTD., priority 2006, published 2010)

What was measured:
[1] = Decomposition of compound (I) on adding a basic ingredient; assay type: physicochemical; settings: basic ingredient added to compound (I)
[2] = pH dependence of the dissolution rate of compound (I); assay type: physicochemical; settings: compared with approximately pH 1.2 (gastric juice) and approximately pH 6.8 (intestinal juice)

CCOC(=O)COc1cc(C)c(CCN[C@@H](C)[C@H](O)c2ccc(O)cc2)cc1C.Cl [compound (I), Ethyl (−)-2-[4-[2-[[(1S,2R)-2-hydroxy-2-(4-hydroxy-phenyl)-1-methylethyl]amino]ethyl]-2,5-dimethylphenoxy]-acetate hydrochloride]
decomposition of compound (I) [1]: decomposition of compound (I) itself was accelerated
pH of the highest dissolution rate of the active ingredient [2]: highest dissolution rate at approximately pH 4
